Laboratory results: ChEMBL document CHEMBL4339239, “A Cytotoxic Indole Characterized by Incorporation of a Unique Carbon-Nitrogen Skeleton and Two Pentacyclic Corynanthean Alkaloids Incorporating a Substituted Tetrahydrofuranone Ring from Kopsia arborea” (J Nat Prod, 2019)
pIC50: −log10 of the molar value.

System: HT-29
Assay: Cytotoxicity in human HT-29 cells assessed as inhibition of cell growth incubated for 72 hrs by MTT assay
Assay type: functional, cell-based
Settings: HT-29, 72 h

In the case of C=C1c2[nH]c3ccccc3c2C[C@H]2[N@]3CC[C@]12/C(=C\C)C3, the pIC50 was 5.21.
In the case of C[C@H](O)[C@@]12CN3CCc4c([nH]c5ccccc45)[C@@H]3C[C@@H]1C(=O)CO2, the pIC50 was < 4.52.
